Results as given in patent US20060063759A1, “Tricyclic steroid hormone nuclear receptor modulators” (priority 2002, published 2006).

Assays:
glucocorticoid receptor = biological target: T1, glucocorticoid receptor (Homo sapiens, UniProt P04150); experiment: Glucocorticoid Receptor Binding Assay ([3H]-dexamethasone, A549 cell extract); conditions: [3H]-dexamethasone binding, read-out: GR Ki
T1 construct: containing 50-200 ug of A549 cell extract and 1.86 nM [^3H]-dexamethasone; host or cells: A549 human lung epithelial cells (sonicated cell extract)
T1 sequence (P04150 1-777): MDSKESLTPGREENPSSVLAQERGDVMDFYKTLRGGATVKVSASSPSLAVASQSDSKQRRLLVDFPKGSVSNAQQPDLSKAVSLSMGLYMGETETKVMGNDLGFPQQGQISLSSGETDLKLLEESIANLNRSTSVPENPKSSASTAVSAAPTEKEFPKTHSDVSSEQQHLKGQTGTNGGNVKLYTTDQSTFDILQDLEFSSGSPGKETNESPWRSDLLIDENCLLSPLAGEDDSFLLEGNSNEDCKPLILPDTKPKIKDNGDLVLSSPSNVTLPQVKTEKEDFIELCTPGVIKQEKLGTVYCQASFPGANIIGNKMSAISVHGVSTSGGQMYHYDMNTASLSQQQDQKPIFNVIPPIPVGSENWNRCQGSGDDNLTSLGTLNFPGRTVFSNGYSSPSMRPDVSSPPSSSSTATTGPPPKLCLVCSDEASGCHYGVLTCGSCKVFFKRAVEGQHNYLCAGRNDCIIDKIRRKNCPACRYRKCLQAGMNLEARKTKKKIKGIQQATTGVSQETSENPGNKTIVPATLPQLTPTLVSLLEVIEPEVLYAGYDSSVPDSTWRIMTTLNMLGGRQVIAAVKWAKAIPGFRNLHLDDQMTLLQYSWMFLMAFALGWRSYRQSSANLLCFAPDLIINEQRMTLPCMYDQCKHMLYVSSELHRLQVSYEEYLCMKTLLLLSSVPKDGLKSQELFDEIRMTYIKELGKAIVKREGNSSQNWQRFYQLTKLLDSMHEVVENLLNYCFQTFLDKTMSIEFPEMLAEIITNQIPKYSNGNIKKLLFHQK
In short: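 A549 cell extract (50–200 ug) incubated with 1.86 nM [3H]-dexamethasone and test compound for 16 h at 4 °C in Tris-HCl pH 7.2 buffer with glycerol and molybdate. Unbound radioligand removed by dextran-coated charcoal, then supernatant bound counts measured by scintillation.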

human MR = biological target: T2, human MR (Homo sapiens, UniProt P08235); experiment: Mineralocorticoid Receptor Binding Assay ([3H]-aldosterone); conditions: [3H]-aldosterone binding, human MR expressed in Sf9 cells; read-out: MR Ki
T2 construct: The full length human MR gene is cloned from a human kidney or human brain cDNA library; His tag from the pAcHLT vector (own knowledge); made in house; host or cells: Sf9 insect cells (baculovirus, pAcHLT transfer vector)
T2 sequence (P08235 1-984): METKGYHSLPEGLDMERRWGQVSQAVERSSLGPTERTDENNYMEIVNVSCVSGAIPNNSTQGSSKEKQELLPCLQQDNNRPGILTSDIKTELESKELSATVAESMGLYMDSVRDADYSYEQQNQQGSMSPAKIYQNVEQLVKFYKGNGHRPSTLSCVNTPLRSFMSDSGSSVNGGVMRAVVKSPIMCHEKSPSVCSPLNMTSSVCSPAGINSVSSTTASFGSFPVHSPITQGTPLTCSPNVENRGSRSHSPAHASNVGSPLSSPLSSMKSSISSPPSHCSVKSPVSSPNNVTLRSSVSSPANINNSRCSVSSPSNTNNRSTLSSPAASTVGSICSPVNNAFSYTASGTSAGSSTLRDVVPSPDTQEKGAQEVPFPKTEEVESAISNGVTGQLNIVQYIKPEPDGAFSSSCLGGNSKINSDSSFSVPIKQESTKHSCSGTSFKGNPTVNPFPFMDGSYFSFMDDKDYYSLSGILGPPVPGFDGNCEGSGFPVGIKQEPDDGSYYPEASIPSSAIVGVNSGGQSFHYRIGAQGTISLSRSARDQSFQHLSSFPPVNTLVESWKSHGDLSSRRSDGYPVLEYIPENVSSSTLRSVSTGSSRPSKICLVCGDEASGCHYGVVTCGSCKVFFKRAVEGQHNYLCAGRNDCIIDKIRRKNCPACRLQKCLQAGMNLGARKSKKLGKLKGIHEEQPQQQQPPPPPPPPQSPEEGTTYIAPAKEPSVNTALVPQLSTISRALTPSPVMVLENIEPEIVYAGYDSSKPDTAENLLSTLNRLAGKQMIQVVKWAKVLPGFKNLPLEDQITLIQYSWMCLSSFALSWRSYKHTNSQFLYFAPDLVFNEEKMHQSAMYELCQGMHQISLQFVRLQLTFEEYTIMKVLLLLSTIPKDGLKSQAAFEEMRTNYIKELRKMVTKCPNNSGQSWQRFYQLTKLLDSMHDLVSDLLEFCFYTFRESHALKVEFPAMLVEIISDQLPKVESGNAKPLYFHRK
In short: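 Lysate supernatant of Sf9 cells expressing full-length human MR (20-25 μg protein) was incubated with 0.5 nM [3H]-aldosterone and test compound in molybdate/Tris/phosphate/glycerol buffer, pH 7.5, ~16 h at 4 °C. Bound ligand was filtered and counted by scintillation; IC50 is the concentration halving [3H]-aldosterone binding.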

## CCCCS(=O)(=O)Nc1cccc(C=C2c3ccccc3CCc3ccccc32)c1 [Example 105, Butane-1-sulfonic acid [3-(10,11-dihydro-dibenzo[a,d]cyclohepten-5-ylidenemethyl)-phenyl]-amide]
Glucocorticoid receptor
  Ki: < 500 nM
Human MR
  Ki: < 500 nM

## CCS(=O)(=O)Nc1ccc(C=C2c3ccccc3CCc3ccccc32)cc1 [Example 106, Ethanesulfonic acid [4-(10,11-dihydro-dibenzo[a,d]cyclohepten-5-ylidenemethyl)-phenyl]amide]
Glucocorticoid receptor
  Ki: < 500 nM
Human MR
  Ki: < 500 nM

## CCCS(=O)(=O)Nc1ccc(C=C2c3ccccc3CCc3ccccc32)cc1 [Example 108, Propane-1-sulfonic acid [4-(10,11-dihydro-dibenzo[a,d]cyclohepten-5-ylidenemethyl)-phenyl]-amide]
Glucocorticoid receptor
  Ki: < 500 nM
Human MR
  Ki: < 500 nM

## CCCCS(=O)(=O)Nc1ccc(C=C2c3ccccc3CCc3ccccc32)cc1 [Example 109, Butane-1-sulfonic acid [4-(10,11-dihydro-dibenzo[a,d]cyclohepten-5-ylidenemethyl)-phenyl]-amide]
Glucocorticoid receptor
  Ki: < 500 nM
Human MR
  Ki: < 500 nM

## CC(C)CS(=O)(=O)Nc1cccc(C=C2c3ccccc3CCc3ccccc32)c1 [Example 110, 2-Methyl-propane-1-sulfonic acid [3-(10,11-dihydro-dibenzo[a,d]cyclohepten-5-ylidenemethyl)-phenyl]-amide]
Glucocorticoid receptor
  Ki: < 500 nM
Human MR
  Ki: < 500 nM

## CN(C)S(=O)(=O)Nc1cccc(C=C2c3ccccc3CCc3ccccc32)c1 [Example 112, Dimethylsulfamic acid [3-(10,11-dihydro-dibenzo[a,d]cyclohepten-5-ylidenemethyl)-phenyl]-amide]
Glucocorticoid receptor
  Ki: < 500 nM
Human MR
  Ki: < 500 nM

## CN(C)S(=O)(=O)Nc1ccc(C=C2c3ccccc3CCc3ccccc32)cc1 [Example 113, Dimethylsulfamic acid [4-(10,11-dihydro-dibenzo[a,d]cyclohepten-5-ylidenemethyl)-phenyl]-amide]
Glucocorticoid receptor
  Ki: < 500 nM
Human MR
  Ki: < 500 nM

## CC(=O)Nc1cccc(C=C2c3ccccc3CCc3ccccc32)c1 [Example 114, N-[3-(10,11-Dihydro-dibenzo[a,d]cyclohepten-5-ylidenemethyl)-phenyl]-acetamide]
Glucocorticoid receptor
  Ki: < 500 nM
Human MR
  Ki: < 500 nM

## CNc1cccc(C=C2c3ccccc3CCc3ccccc32)c1 [Example 118, [3-(10,11-Dihydro-dibenzo[a,d]cyclohepten-5-ylidenemethyl)-phenyl]-methyl-amine]
Glucocorticoid receptor
  Ki: < 500 nM
Human MR
  Ki: < 500 nM

## CNc1ccccc1C=C1c2ccccc2CCc2ccccc21 [Example 120, [2-(10,11-Dihydro-dibenzo[a,d]cyclohepten-5-ylidenemethyl)-phenyl]-methyl-amine]
Glucocorticoid receptor
  Ki: < 10000 nM
Human MR
  Ki: < 500 nM

## CN(C)c1ccccc1C=C1c2ccccc2CCc2ccccc21 [Example 121, [2-(10,11-Dihydro-dibenzo[a,d]cyclohepten-5-ylidenemethyl)-phenyl]-dimethyl-amine]
Glucocorticoid receptor
  Ki: < 10000 nM
Human MR
  Ki: < 500 nM

## CS(=O)(=O)Nc1cccc(CC2c3ccccc3CCc3ccccc32)c1 [Example 125, N-[3-(10,11-Dihydro-5H-dibenzo[a,d]cyclohepten-5-ylmethyl)-phenyl]-methanesulfonamide]
Glucocorticoid receptor
  Ki: < 500 nM
Human MR
  Ki: < 500 nM

## NC(=O)Nc1cccc(C=C2c3ccccc3CCc3ccccc32)c1 [Example 128, [3-(10,11-Dihydro-dibenzo[a,d]cyclohepten-5-ylidenemethyl)-phenyl]-urea]
Glucocorticoid receptor
  Ki: < 1000 nM
Human MR
  Ki: < 500 nM

## NC(=O)Nc1ccc(C=C2c3ccccc3CCc3ccccc32)cc1 [Example 129, [4-(10,11-Dihydro-dibenzo[a,d]cyclohepten-5-ylidenemethyl)-phenyl]-urea]
Glucocorticoid receptor
  Ki: < 500 nM
Human MR
  Ki: < 500 nM

## Cc1ccccc1C=C1c2ccccc2CCc2ccccc21 [Example 130, 5-(2-Methyl-benzylidene)-10,11-dihydro-5H-dibenzo [a,d]cycloheptene]
Glucocorticoid receptor
  Ki: < 10000 nM
Human MR
  Ki: < 500 nM

## Cc1ccccc1CC1c2ccccc2CCc2ccccc21 [Example 131, 5-(2-Methyl-benzyl)-10,11-dihydro-5H-dibenzo[a,d]cycloheptene]
Glucocorticoid receptor
  Ki: < 10000 nM
Human MR
  Ki: < 500 nM

## Cc1cccc(C=C2c3ccccc3CCc3ccccc32)c1 [Example 132, 5-(3-Methyl-benzylidene)-10,11-dihydro-5H-dibenzo[a,d]cycloheptene]
Glucocorticoid receptor
  Ki: < 1000 nM
Human MR
  Ki: < 500 nM

## Cc1cccc(CC2c3ccccc3CCc3ccccc32)c1 [Example 133, 5-(3-Methyl-benzyl)-10,11-dihydro-5H-dibenzo[a,d]cycloheptene]
Glucocorticoid receptor
  Ki: < 1000 nM
Human MR
  Ki: < 500 nM

## FC(F)(F)c1cccc(CC2c3ccccc3CCc3ccccc32)c1 [Example 137, 5-(3-Trifluoromethyl-benzyl)-10,11-dihydro-5H-dibenzo[a,d]cycloheptene]
Glucocorticoid receptor
  Ki: < 1000 nM
Human MR
  Ki: < 500 nM

## FC(F)(F)c1cc(CC2c3ccccc3CCc3ccccc32)cc(C(F)(F)F)c1 [Example 141, 5-(3,5-Bis-Trifluoromethyl-benzyl)-10,11-dihydro-5H-dibenzo[a,d]cycloheptene]
Glucocorticoid receptor
  Ki: < 500 nM
Human MR
  Ki: < 500 nM

## Cn1cnc(S(=O)(=O)Nc2ccc(C=C3c4ccccc4CCc4ccccc43)cc2)c1 [Example 143, 1-Methyl-1H-imidazole-4-sulfonic acid [4-(10,11-dihydro-dibenzo[a,d]cyclohepten-5-ylidenemethyl)-phenyl]-amide]
Glucocorticoid receptor
  Ki: < 10000 nM
Human MR
  Ki: < 500 nM

## CS(=O)(=O)NCc1cccc(C=C2c3ccccc3CCc3ccccc32)c1 [Example 145, N-[3-(10,11-Dihydro-dibenzo[a,d]cyclohepten-5-ylidenemethyl)-benzyl]-methanesulfonamide]
Glucocorticoid receptor
  Ki: < 500 nM
Human MR
  Ki: < 500 nM

## COc1cc(C=C2c3ccccc3CCc3ccccc32)ccc1F [Example 148, 5-(4-Fluoro-3-methoxy-benzylidene)-10,11-dihydro-5H-dibenzo[a,d]cycloheptene]
Glucocorticoid receptor
  Ki: < 1000 nM
Human MR
  Ki: < 500 nM

## Oc1cc(C=C2c3ccccc3CCc3ccccc32)ccc1F [Example 149, 5-(10,11-Dihydro-dibenzo[a,d]cyclohepten-5-ylidenemethyl)-2-fluoro-phenol]
Glucocorticoid receptor
  Ki: < 500 nM
Human MR
  Ki: < 500 nM

## Oc1ccc(F)c(C=C2c3ccccc3CCc3ccccc32)c1 [Example 151, 3-(10,11-Dihydro-dibenzo[a,d]cyclohepten-5-ylidenemethyl)-4-fluoro-phenol]
Glucocorticoid receptor
  Ki: < 1000 nM
Human MR
  Ki: < 500 nM

## COc1cccc(C=C2c3ccccc3CCc3ccccc32)c1F [Example 152, 5-(2-Fluoro-3-methoxy-benzylidene)-10,11-dihydro-5H-dibenzo[a,d]cycloheptene]
Glucocorticoid receptor
  Ki: < 10000 nM
Human MR
  Ki: < 500 nM
